Results taken from patent US8093025B2, “Bacterial vector” (Helmholtz-Zentrum fuer Infektionsforschung GmbH, priority 2004, dated 2012).

Legend:
[1] = tested on: PBAD; assay: GFP expression from bacterial vector within infected J774A1 cells, two colour flow cytometry; type: cell-based, murine; conditions: SL7207[pHL238] in J774A1 cells, L-arabinose 4 mM, 40 mM, 400 mM in medium, 3 hours
Protocol: The murine macrophage cell line J774A1 was infected with bacterial vector SL7207[pHL238] of Example 1. Before infection, cells were seeded to 2×10^6 cells per well in a 6-well plate in antibiotic-free medium (IMDM with 10% inactivated fetal calf serum, 2 mM glutamine) and grown for one day in a 5% CO2 atmosphere at 37° C. For infection, SL7207[pHL238] were grown from a glycerol stock overnight at 37° C. on a LB plate supplemented with antibiotics, followed by cultivation in liquid LB medium supplemented with antibiotics for approximately 2 hours at 37° C., shaking at 60 rpm. Bacteria were harvested by centrifugation, washed in PBS, resuspended in cell culture medium and added at a ˜MOI of 10. 30 min after start of infection cells were washed twice with PBS before medium containing gentamycin (50 μg/mL) was added to kill extracellular bacteria. […] GFP expressing bacteria in the lysates were monitored by flow cytometry. In order to differentiate fluorescence of GFP expressing bacteria from autofluorescent cell fragments the so-called two colour flow cytometry method was used (Bumann, Infect. Immun. (2001) 69, 4618-4626.). The analytical results are depicted in FIG. 3, with unspecific background fluorescence substracted. […]

[2] = tested on: SL7207 bearing the plasmid of FIG. 8; assay: Induced lysis (gene E) of bacterial vector within infected J774A1 cells, CFU; type: cell-based, Salmonella enterica serovar Typhimurium; conditions: SL7207 with gene E plasmid pHL241, induction period 3 hours
Protocol: The plasmid pHL241 shown in FIG. 8 was derived from plasmid pHL238 shown in FIG. 1 by exchanging gene gfp against gene E.
For infection, J774A1 cells were cultured and infected with SL7207 bearing the plasmid of FIG. 8 according to the procedure of Example 2. Induction was by addition of L-arabinose to the final concentrations in cell culture medium as given in FIG. 9, for an induction period of 3 hours. Following induction, cells were harvested and lysed by addition of Triton X-100 to a concentration of 1 g/L. For re-isolation, intracellular bacterial vectors were plated on LB-agar containing ampicillin for quantification of viable bacteria as colony forming units (CFU).

[3] = tested on: PBAD; assay: Induction of plasmid replication in bacterial vector within infected J774A1 cells (GFP read-out); type: cell-based, murine; conditions: SL7207[pAEN17] in J774A1 cells, L-arabinose 4 mM, 40 mM, 400 mM, 3 hours
Protocol: J774A1 cells, a murine macrophage cell line, were infected with strain SL7207[pAEN17], as described in Example 2. 4 hours after infection, different amounts of L-arabinose were added into individual wells of infected J774A1 cells up to a concentration in the medium of 4 mM, 40 mM and 400 mM, respectively. 3 hours after addition of L-arabinose cells were treated with 0.25% Triton X-100. Bacteria in the lysates were monitored for GFP expression by flow cytometry as described in Example 2. The analytical results are depicted in FIG. 7, with unspecific background fluorescence substracted.

[4] = tested on: PBAD; assay: In vitro regulation of copy number of plasmid pAEN17 (GFP read-out) in bacterial culture; type: cell-based, Salmonella enterica serovar Typhimurium; conditions: addition of L-arabinose, trfA under PBAD acting on oriV
From the text: In the absence of L-arabinose, just one copy of this plasmid per bacterial cell is maintained, regulated by the origin of replication derived from the F plasmid of Escherichia coli. In addition, this plasmid contains the inducible origin of replication of plasmid RK2, namely oriV. The replicase gene trfA, acting on this origin, is placed under the control of PBAD, as an example for a saccharide inducible promoter.
In order to allow for a convenient analysis of plasmid replication, GFP was placed under control of the weak constitutive Pbla promoter derived from the bla gene, also contained on said vector. The recombinant strain SL7207[pAEN17] was grown into logarithmic phase and either no or 0.1% L-Arabinose was added into bacterial cultures.

[5] = tested on: CT26 tumor; assay: In vivo colonization and luciferase transgene induction in CT26 tumor-bearing mice; parameters: species or system Balb/c mice
From the text: As a representative for a transgene, the luciferase gene from the firefly Photinus pyralis was used as the reporter gene. As the saccharide inducible promoter element, PBAD from the L-arabinose operon of E. coli was functionally linked to the luciferase gene, the promoter element further being in conjunction with the structural gene for its regulator protein araC under the control of its natural own promoter (PC). The bacterial vector was generated by transforming Salmonella enterica serovar Typhimurium, vaccine strain SL7207, with the plasmid containing the transgene under the control of the saccharide inducible promoter by electroporation.
As an example for an animal having a tumor, Balb/c mice were subcutaneously inoculated abdominally with 10^6 cells of the colon adenocarcinoma cell line CT26. After this tumor generation treatment, mice bearing tumors of approximately 400-600 mm^3 were intravenously injected with 5×10^6 bacteria of the above bacterial vector (SL7207[pHL259]), representing the first component of the pharmaceutical combination, suspended in phosphate buffered saline (PBS). Three days post infection, L-arabinose as the appropriate inductor saccharide, representing the second component of the pharmaceutical combination, was administered intraperitoneally, dissolved in PBS. Subsequently, mice were sacrificed and the tumors, spleens and livers dissected, then transferred into 3 mL of sterile, ice-cold PBS containing 0.1% (vol/vol) Triton X-100.
Tissues were disrupted in a Polytron PG3000 homogenizer (Kinematica, Littau, Switzerland). Homogenates were diluted in PBS and streaked on medium plates with selective antibiotic (ampicillin). Colonies were counted after incubation of plates. As a result, the number of bacteria in respective tissues could be calculated by counting the resulting colony forming units (cfu) for each organ.
The induction of the transgene was determined by measurement of the reporter gene (luciferase) activity from tissue homogenates after dilution (1:1) in 2× luciferase assay lysis buffer (50 mM tris-HCl, 4 mM DTT, 20% (vol/vol) glycerol, 2% (vol/vol) Triton X-100, 2 mg/mL lysozyme, pH 8.3), incubation at 25° C. for 10 minutes, centrifugation at 3,000×g for 3 minutes, 10 μL supernatant were added to 100 mL LARII reagent of the luciferase assay system according to the manufacturer's instructions (Promega, Mannheim, Germany). Luminescence intensity was measured spectrometrically in a luminometer (Lumat LB9507, Berthold, Pforzheim, Germany). Dilution was taken into account when calculating RLU per organ.

[6] = tested on: CT26 tumor; assay: Vector with gene E under Prha and lux under PBAD plus TNFalpha in CT26 tumor mice; type: in vivo, Balb/c mice
From the text: As an example for multifunctional bacterial vectors for use in the pharmaceutical combination according to the invention, vaccine strain SL7207 was genetically manipulated by Tn7 mediated chromosomal integration of the mini-transposon of a plasmid pHL260b, modified from pHL260a by replacing the PBAD promoter by the L-rhamnose inducible promoter (Prha), derived from plasmid pJOE2702 (Stumpp et al., Biospektrum 6, 33-36(2000)). This strain chromosomally contains at least one copy of gene E of bacteriophage phiX174 under the control of the rhamnose inducible promoter (Prha). The resultant strain was then transformed with plasmid pTNFa-lux, containing the bioluminescence operon of Photorhabdus luminescence under control of the PBAD promoter in combination with the mouse TNFalpha gene under the control of the constitutive promoter from beta-lactamase (Pbla).
As described in Example 8, Balb/c mice bearing a CT26 tumor were administered 5×10^6 bacterial vector, suspended in PBS by intravenous administration. […] Upon administration of 120 mg L-arabinose dissolved in PBS intraperitoneally, to the same mice 1 day later, as well as on consecutive days, colonization of tumor tissue by bacterial vectors was monitored by spectrometry, more specifically luminometric analysis of anesthesized mice using a CCD camera.

[7] = tested on: PBAD; assay: In vivo GFP expression from bacterial vector re-isolated from spleen of infected mice; parameters: species or system Balb/c mice; conditions: SL7207[pHL238] i.v., L-arabinose i.v. after 2 days, spleen 4 hours later
Protocol: Balb/c mice were infected intravenously with a dose of ca. 5×10^6 bacteria in PBS of bacterial vector SL7207[pHL238]. After 2 days, different amounts of L-arabinose dissolved in PBS were administered intravenously into mice. 4 hours after L-arabinose administration mice were sacrificed, spleens were removed, homogenized in PBS containing 0.1% Triton X-100 and lysates were analyzed by two colour flow cytometry.

[8] = tested on: PBAD; assay: GFP expression from plasmid pHL238 in bacterial culture after induction, flow cytometry; type: cell-based, Salmonella enterica serovar Typhimurium; conditions: induction by L-arabinose, vector SL7207[pHL238]
From the text: As an example for a structural gene, plasmid pHL238 (schematically depicted in FIG. 1) comprising the structural gene for green fluorescent protein (GFP) under the control of PBAD was cloned, further comprising the structural gene for the regulator of PBAD, araC under the control of its own promoter Pc, along with the Ampicillin resistance gene as a selection marker, and a high copy number origin of replication from pUC. Regulatory elements originate from plasmid pBAD18 (Guzman et al., J. Bacteriol. 1995 July; 177(14):4121-30)
This bacterial vector is based on Salmonella enterica serovar Typhimurium, strain SL7207, which is a known attenuated invasive salmonella strain in use for experimental vaccination. The salmonella strain was transformed with plasmid pHL238 by electroporation, transformed colonies were selected on LB-medium agar plates containing streptomycin at 30 μg/mL and ampicillin at 100 μg/mL. The resultant transformed strain was bacterial vector SL7207[pHL238]. […] Results are shown in FIG. 2, the thick line for addition of L-arabinose, the thin line without L-arabinose.

For `O=C[C@H](O)[C@@H](O)[C@@H](O)CO` [L-arabinose], the “fluorescence intensity of GFP” value [1] was “increases with increasing concentrations of L-arabinose”, the “number of viable bacterial vectors inside infected J774A1 cells (CFU)” value [2] was “drastically decreases the number of viable bacterial vectors” and the “fluorescence intensity of GFP” value [3] was “increases with increasing concentrations of L-arabinose”. For the same compound, the “copy number of the plasmid pAEN17” value [4] was “increased copy number”, the “induction of transgene expression (luciferase, RLU)” value ([5]; L-arabinose i.p. three days post infection, tumor, spleen, liver) was “induces transgene expression for all tissues tested” and the “transgene activity in spleen and liver” value ([5]; spleen and liver) was “very low to about background levels”. The “time of main transgene activity past administration of the inductor saccharide” value ([5]; tumor tissue) was “about 6 hours”, the “absolute transgene activity, comparison of tissues” value ([5]; tumor, spleen, liver) was “greatest in tumor tissue” and the “bioluminescence from lux operon under PBAD” value ([6]; 120 mg L-arabinose i.p., repeated administration after L-rhamnose) was “bioluminescence”. The “expression of GFP by bacteria recovered from infected animals” value [7] was “induced by L-Arabinose in a dose-dependent manner” and the “GFP fluorescence relative to background without induction” value [8] was “more than two orders above the background fluorescence”.

In the case of `C[C@H](O)[C@H](O)[C@@H](O)[C@@H](O)C=O` [L-rhamnose], the “lysis of bacterial vector and release of TNFalpha” value ([6]; 120 mg L-rhamnose i.p. 3 days after vector i.v.) is reported as “lysis of bacterial vector and release of TNFalpha was observed”.
